Source: ChEMBL document CHEMBL5154697, “Synthesis and anti-HIV activity of a new isoxazole containing disubstituted 1,2,4-oxadiazoles analogs” (Bioorg Med Chem, 2022)

Columns and labels:
[1] = Cytotoxicity against human CEM-GFP cells assessed as cell viability at 100 nM measured after 48 hrs by MTT assay relative to control; assay type: toxicity, cell-based; conditions: read-out: Activity
[2] = Cytotoxicity against human TZM-bl cells harboring beta-galactosidase/luciferase reporter gene assessed as cell viability at 100 nM measured after 48 hrs by MTT assay relative to control; assay type: toxicity, cell-based; conditions: read-out: Activity
[3] = tested on: Human immunodeficiency virus 1; assay: Antiviral activity against HIV1 NL4.3 virus infected in human CEM-GFP cells assessed as reduction in p24 antigen level at 100 nM measured after 72 hrs by ELISA relative to control; assay type: functional; conditions: Human immunodeficiency virus 1, NL4.3, CEM-GFP
[4] = tested on: Human immunodeficiency virus 1; assay: Antiviral activity against HIV1 NL4.3 infected in human TZM-bl cells assessed as inhibition of viral infection at 100 nM measured after 48 hrs by steady-glo luciferase reporter gene assay relative to control; assay type: functional; conditions: Human immunodeficiency virus 1, NL4.3, TZM-bl
[5] = biological target: Human immunodeficiency virus type 1 protease (Human immunodeficiency virus 1) (UniProt Q72874); conditions: dose 500.0 nM
Description: Inhibition of HIV-1 protease at 500 nM using fluorophore-labelled peptide substrate by fluorescence assay relative to control

[6] = biological target: Human immunodeficiency virus type 1 integrase (Human immunodeficiency virus 1) (UniProt Q7ZJM1); assay: Inhibition of full-length recombinant HIV1 integrase at 100 nM using target substrate DNA preincubated for 5 mins followed by substrate addition and measured after 30 mins by colorimetry relative to control; conditions: time 35.0 min
[7] = Cytotoxicity against human CEM-GFP cells assessed as reduction in cell viability measured after 48 hrs by MTT assay; assay type: toxicity, cell-based
[8] = tested on: Human immunodeficiency virus 1; assay: Antiviral activity against HIV1 NL4.3 virus infected in human CEM-GFP cells assessed as reduction in p24 antigen level measured after 72 hrs by ELISA; assay type: functional, organism-based; conditions: Human immunodeficiency virus 1, NL4.3, CEM-GFP
[9] = biological target: Human immunodeficiency virus type 1 reverse transcriptase (Human immunodeficiency virus 1) (UniProt Q72547); assay: Inhibition of HIV-1 reverse transcriptase RNA-dependent DNA polymerase activity assessed as reduction in biotin-dUTP incorporation at 100 nM using poly(A)/oligo (dT)15 as template/primer by ELISA relative to control
[10] = biological target: Human immunodeficiency virus type 1 protease (Human immunodeficiency virus 1) (UniProt Q72874); assay: Inhibition of HIV-1 protease at 100 nM using fluorophore-labelled peptide substrate by fluorescence assay relative to control
[11] = Therapeutic index, ratio of CC50 for cytotoxicity against human CEM-GFP cells to IC50 for antiviral activity against HIV1 NL4.3 virus infected in human CEM-GFP cells assessed as reduction in p24 antigen level; assay type: toxicity, cell-based; conditions: read-out: TI

Chain of Human immunodeficiency virus type 1 integrase (Human immunodeficiency virus 1) (Q7ZJM1 as listed by the source): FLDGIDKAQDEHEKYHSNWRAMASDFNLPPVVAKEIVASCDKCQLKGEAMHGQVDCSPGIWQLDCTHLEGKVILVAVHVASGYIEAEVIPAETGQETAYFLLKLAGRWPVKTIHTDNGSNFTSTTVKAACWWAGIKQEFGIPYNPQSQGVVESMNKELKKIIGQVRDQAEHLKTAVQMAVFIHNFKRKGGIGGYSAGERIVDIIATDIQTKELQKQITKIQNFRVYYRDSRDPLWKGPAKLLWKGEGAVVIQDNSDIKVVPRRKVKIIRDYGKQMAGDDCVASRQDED

`COc1ccc(-c2cc(Cc3noc(-c4cccc(C(F)(F)F)c4)n3)on2)cc1` showed a viability at 48 h, 0.1 µM [1] of 96.6%, a viability at 48 h, 0.1 µM [2] of 83% and an inhibition at 0.1 µM [3] of 27%. For the same compound, the inhibition at 0.1 µM [4] was 24.3%.

`CC(C)(C)NC(=O)[C@@H]1CN(Cc2cccnc2)CCN1C[C@@H](O)C[C@@H](Cc1ccccc1)C(=O)N[C@H]1c2ccccc2C[C@H]1O` showed an inhibition [5] of 87%.

`FC(F)(F)c1cccc(-c2nc(Cc3cc(-c4ccc(Cl)cc4)no3)no2)c1` gave an inhibition [6] of 9.58%, a viability at 48 h, 0.1 µM [1] of 85.1% and a CC50 at 48 h [7] of 13.3 µM. For the same compound, the viability at 48 h, 0.1 µM [2] was 84.4%, the IC50 [8] was 0.0857 µM and the inhibition [9] was 5.44%. The inhibition at 0.1 µM [3] was 66.8%, the inhibition at 0.1 µM [4] was 82% and the inhibition [10] was 6.66%. It also gave a selectivity ratio [11] of 155.

With `FC(F)(F)c1cccc(-c2nc(Cc3cc(-c4ccccc4)no3)no2)c1` the viability at 48 h, 0.1 µM [1] was 95.9%, the viability at 48 h, 0.1 µM [2] was 84.7% and the inhibition at 0.1 µM [3] was 39.1%. For the same compound, the inhibition at 0.1 µM [4] was 47.4%.

Work on `FC(F)(F)c1cccc(-c2nc(Cc3cc(-c4cccs4)no3)no2)c1` yielded a viability at 48 h, 0.1 µM [1] of 88.3%, a viability at 48 h, 0.1 µM [2] of 88.2% and an inhibition at 0.1 µM [3] of 17.5%. It also gave an inhibition at 0.1 µM [4] of 27.5%.

`Cc1ccc(-c2cc(Cc3noc(-c4cccc(C(F)(F)F)c4)n3)on2)cc1` showed a viability at 48 h, 0.1 µM [1] of 86.7%, a viability at 48 h, 0.1 µM [2] of 82.1% and an inhibition at 0.1 µM [3] of 50%. It also gave an inhibition at 0.1 µM [4] of 65.4%.

Compound `CCNC(=O)c1noc(-c2cc(C(C)C)c(O)cc2O)c1-c1ccc(CN2CCOCC2)cc1` [LUMINESPIB] has a viability at 48 h, 0.1 µM [1] of 94.1%, a CC50 at 48 h [7] of 31.1 µM and a viability at 48 h, 0.1 µM [2] of 92.7%. For the same compound, the inhibition at 0.1 µM [3] was 82.5%, the inhibition at 0.1 µM [4] was 88.9% and the selectivity ratio [11] was 470.
